Measured values as given in the supplement of paper PMC8253809.

How the values were obtained:
SUDIPGXXI [1] = diffuse intrinsic pontine glioma line; test: maximal growth inhibition (yFin) relative to DMSO / staurosporine; higher = more efficacious
In short: (§1)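 Patient-derived pHGG/DIPG cell lines and astrocyte controls were grown on 1% Geltrex-coated 384-well plates and exposed by pin tool to a 10-point threefold dilution series (mean top concentration 35 μM), in triplicate. Exposure was 7 days (iAstro 3 days) at 37 °C, 5% CO2. CellTiter-Glo luminescence was log2-transformed, normalised per plate to % activity between negative (solvent) and positive control wells, and pooled. EC50 and maximal response (yFin) come from the lowest-AICc three- or four-parameter log-logistic fit.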

SUDIPGIV = diffuse intrinsic pontine glioma line; test: area under dose-response curve of % growth inhibition (log2 RLU vs DMSO / staurosporine), 1e-11 to 1e-4 M (% x log10 M); higher = more growth inhibition
In short: (§2)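 On 1% Geltrex-coated 384-well plates, patient-derived pHGG/DIPG cell lines and astrocytes were treated in triplicate across 10 threefold dilutions (mean top concentration 35 μM) for 7 days, with iAstro treated for 3 days, at 37 °C, 5% CO2. Log2-transformed CellTiter-Glo luminescence was normalised per plate to % activity between solvent and positive controls. Area under the curve was obtained by the trapezoid rule from a log-logistic fit, or from a smoothing spline when that fit failed.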

SUDIPGXIX = diffuse intrinsic pontine glioma line; test: as above
In short: as §2

SUDIPGXIII = diffuse intrinsic pontine glioma line; test: as above
In short: as §2

SUDIPGVI = diffuse intrinsic pontine glioma line; test: as above
In short: as §2

iAstro = astrocyte control; test: as above
In short: as §2

DIPGX29 [2] = H3.3 K27M diffuse intrinsic pontine glioma line; test: as above
In short: as §2

HGGX6 [3] = H3.3 G34R paediatric high-grade glioma line; test: as above
In short: as §2

HGGX2 = paediatric high-grade glioma line; test: as above
In short: as §2

SUDIPGXXI [4] = test: as above
In short: as §2

SUDIPGXVII = diffuse intrinsic pontine glioma line; test: as above
In short: as §2

HGGX39 [5] = paediatric high-grade glioma line; test: as above
In short: as §2

DIPGX9 = diffuse intrinsic pontine glioma line; test: as above
In short: as §2

DIPGX7 = H3.3 K27M diffuse intrinsic pontine glioma line; test: as above
In short: as §2

HGGX42 = H3.3 G34R paediatric high-grade glioma line; test: as above
In short: as §2

HABS = astrocyte control; test: as above
In short: as §2

DIPGX37 [6] = H3.3 K27M diffuse intrinsic pontine glioma line; test: as above
In short: as §2

SUDIPGXXI [7] = test: EC50 (inflection of fitted growth-inhibition curve) (log10 M)
In short: as §1

DIPGX29 [8] = test: maximal growth inhibition (yFin) relative to DMSO / staurosporine; higher = more efficacious
In short: as §1

HGGX6 [9] = test: as above
In short: as §1

HGGX39 [10] = test: as above
In short: as §1

DIPGX37 [11] = test: as above
In short: as §1

DIPGX29 [12] = test: EC50 (inflection of fitted growth-inhibition curve) (log10 M)
In short: as §1

HGGX6 [13] = test: as above
In short: as §1

HGGX39 [14] = test: as above
In short: as §1

DIPGX37 [15] = test: as above
In short: as §1

| Compound | maximal growth inhibition (SUDIPGXXI [1]) [%] | area under dose-response curve (SUDIPGIV) | area under dose-response curve (SUDIPGXIX) | area under dose-response curve (SUDIPGXIII) | area under dose-response curve (SUDIPGVI) | area under dose-response curve (iAstro) | area under dose-response curve (DIPGX29 [2]) | area under dose-response curve (HGGX6 [3]) | area under dose-response curve (HGGX2) | area under dose-response curve (SUDIPGXXI [4]) | area under dose-response curve (SUDIPGXVII) | area under dose-response curve (HGGX39 [5]) | area under dose-response curve (DIPGX9) | area under dose-response curve (DIPGX7) | area under dose-response curve (HGGX42) | area under dose-response curve (HABS) | area under dose-response curve (DIPGX37 [6]) | EC50 (log10 M) (SUDIPGXXI [7]) | maximal growth inhibition (DIPGX29 [8]) [%] | maximal growth inhibition (HGGX6 [9]) [%] | maximal growth inhibition (HGGX39 [10]) [%] | maximal growth inhibition (DIPGX37 [11]) [%] | EC50 (log10 M) (DIPGX29 [12]) | EC50 (log10 M) (HGGX6 [13]) | EC50 (log10 M) (HGGX39 [14]) | EC50 (log10 M) (DIPGX37 [15]) |
| --- | --- | --- | --- | --- | --- | --- | --- | --- | --- | --- | --- | --- | --- | --- | --- | --- | --- | --- | --- | --- | --- | --- | --- | --- | --- | --- |
| CC12CC3CC(C)(C1)CC(N)(C3)C2 [MEMANTINE] | 32.5 | 6.14 | 1.83 | 0 | 0 | 0.365 | 3.62 | 2.25 | 2.91 | 21.5 | 1.91 | 0.964 | 1.54 | 13.8 | 0.942 | 2.39 | 1.76 | -4.68 |  |  |  |  |  |  |  |  |
| Cc1ccc(NC2=CC(=O)c3sc(C)nc3C2=O)cc1 [RYUVIDINE] |  |  |  |  |  |  | 207 | 197 |  |  |  | 169 |  |  |  |  | 187 |  | 97.5 | 90.5 | 98.1 | 110 | -6.12 | -6.18 | -5.76 | -5.7 |
| CC[C@@H](C(=O)[C@@H](C)[C@@H](O)[C@H](C)[C@@H]1O[C@@H]([C@@H](CC)C(=O)O)CC[C@@H]1C)[C@H]1O[C@]2(C=C[C@@H](O)[C@]3(CC[C@@](C)([C@H]4CC[C@](O)(CC)[C@H](C)O4)O3)O2)[C@H](C)C[C@@H]1C [SALINOMYCIN] |  |  |  |  |  |  | 106 | 85.6 |  |  |  | 153 |  |  |  |  | 153 |  | 69.7 | 60.5 | 73.9 | 62.6 | -5.32 | -5.03 | -6.01 | -6.53 |
| Clc1ccc(C(Cn2ccnc2)OCc2csc3c(Cl)cccc23)c(Cl)c1 (stereo not drawn) [SERTACONAZOLE] |  |  |  |  |  |  | 51.2 | 50.7 |  |  |  | 72.3 |  |  |  |  | 73.6 |  | 64.2 | 62.2 | 61.9 | 84.7 | -4.81 | -4.82 | -4.95 | -4.87 |
| CN[C@H]1CC[C@@H](c2ccc(Cl)c(Cl)c2)c2ccccc21 [SERTRALINE] |  |  |  |  |  |  | 73.3 | 63.3 |  |  |  | 83.8 |  |  |  |  | 70 |  | 85.3 | 81 | 91.4 | 86.5 | -4.86 | -4.79 | -4.83 | -4.82 |
| CNC(=O)c1cc(Oc2ccc(NC(=O)Nc3ccc(Cl)c(C(F)(F)F)c3)cc2)ccn1 [SORAFENIB] |  |  |  |  |  |  | 46.9 | 77.2 |  |  |  | 77 |  |  |  |  | 104 |  | 57.2 | 75.3 | 80.4 | 79 | -4.82 | -4.9 | -4.96 | -4.9 |
